Results from ChEMBL document CHEMBL5303573, “Mapping human microbiome drug metabolism by gut bacteria and their genes” (Nature, 2019).

Assay: The drug is tested on Bifidobacterium longum subsp. Infantis strain: CCUG52486 for biotransformation. The drug concentrations were measured before and after a 12-h incubation by liquid-chromatography-coupled mass spectrometry (LC–MS)
Conditions: 2 µM

| SMILES | Bacterial Biotransformation |
| --- | --- |
| CC(=O)Nc1ccc(OC(C)=O)cc1 [DIACETAMATE] | Compound metabolized |
| CC(C)NCC(O)COc1ccc(COCCOC(C)C)cc1.CC(C)NCC(O)COc1ccc(COCCOC(C)C)cc1.O=C(O)/C=C/C(=O)O (configuration not stated) [BISOPROLOL FUMARATE] | Compound NOT metabolized |

Assay: The drug is tested on Collinsella aerofaciens strain: ATCC25986 for biotransformation. The drug concentrations were measured before and after a 12-h incubation by liquid-chromatography-coupled mass spectrometry (LC–MS)
Conditions: 2 µM

| SMILES | Bacterial Biotransformation |
| --- | --- |
| CN/C(=N/CCSCc1nc[nH]c1C)NC#N [CIMETIDINE] | Compound NOT metabolized |
| CC(=O)Nc1ccc(OC(C)=O)cc1 [DIACETAMATE] | Compound metabolized |
| Nc1ccc(/N=N/c2ccccc2)c(N)n1 [PHENAZOPYRIDINE] | Compound metabolized |
| CC(C)NCC(O)COc1ccc(COCCOC(C)C)cc1.CC(C)NCC(O)COc1ccc(COCCOC(C)C)cc1.O=C(O)/C=C/C(=O)O (configuration not stated) [BISOPROLOL FUMARATE] | Compound NOT metabolized |

Assay: The drug is tested on Bacteroides caccae strain: ATCC43185 for biotransformation. The drug concentrations were measured before and after a 12-h incubation by liquid-chromatography-coupled mass spectrometry (LC–MS)
Conditions: 2 µM

| SMILES | Bacterial Biotransformation |
| --- | --- |
| CC(=O)Nc1ccc(OC(C)=O)cc1 [DIACETAMATE] | Compound metabolized |
| Nc1ccc(/N=N/c2ccccc2)c(N)n1 [PHENAZOPYRIDINE] | Compound metabolized |
| CC(C)NCC(O)COc1ccc(COCCOC(C)C)cc1.CC(C)NCC(O)COc1ccc(COCCOC(C)C)cc1.O=C(O)/C=C/C(=O)O (configuration not stated) [BISOPROLOL FUMARATE] | Compound NOT metabolized |

Assay: The drug is tested on Bacteroides finegoldii strain: DSM17565 for biotransformation. The drug concentrations were measured before and after a 12-h incubation by liquid-chromatography-coupled mass spectrometry (LC–MS)
Conditions: 2 µM

| SMILES | Bacterial Biotransformation |
| --- | --- |
| CC(=O)Nc1ccc(OC(C)=O)cc1 [DIACETAMATE] | Compound metabolized |
| Nc1ccc(/N=N/c2ccccc2)c(N)n1 [PHENAZOPYRIDINE] | Compound metabolized |
| CC(C)NCC(O)COc1ccc(COCCOC(C)C)cc1.CC(C)NCC(O)COc1ccc(COCCOC(C)C)cc1.O=C(O)/C=C/C(=O)O (configuration not stated) [BISOPROLOL FUMARATE] | Compound NOT metabolized |

Assay: The drug is tested on Bacteroides fragilis strain: HMW615 for biotransformation. The drug concentrations were measured before and after a 12-h incubation by liquid-chromatography-coupled mass spectrometry (LC–MS)
Conditions: 2 µM

| SMILES | Bacterial Biotransformation |
| --- | --- |
| CC(=O)Nc1ccc(OC(C)=O)cc1 [DIACETAMATE] | Compound metabolized |
| Nc1ccc(/N=N/c2ccccc2)c(N)n1 [PHENAZOPYRIDINE] | Compound metabolized |
| CC(C)NCC(O)COc1ccc(COCCOC(C)C)cc1.CC(C)NCC(O)COc1ccc(COCCOC(C)C)cc1.O=C(O)/C=C/C(=O)O (configuration not stated) [BISOPROLOL FUMARATE] | Compound NOT metabolized |

Assay: The drug is tested on Bacteroides fragilis strain: ATCC43859 for biotransformation. The drug concentrations were measured before and after a 12-h incubation by liquid-chromatography-coupled mass spectrometry (LC–MS)
Conditions: 2 µM

| SMILES | Bacterial Biotransformation |
| --- | --- |
| CC(=O)Nc1ccc(OC(C)=O)cc1 [DIACETAMATE] | Compound metabolized |
| Nc1ccc(/N=N/c2ccccc2)c(N)n1 [PHENAZOPYRIDINE] | Compound metabolized |
| CC(C)NCC(O)COc1ccc(COCCOC(C)C)cc1.CC(C)NCC(O)COc1ccc(COCCOC(C)C)cc1.O=C(O)/C=C/C(=O)O (configuration not stated) [BISOPROLOL FUMARATE] | Compound NOT metabolized |

Assay: The drug is tested on Bacteroides xylanisolvens strain: DSM18836 for biotransformation. The drug concentrations were measured before and after a 12-h incubation by liquid-chromatography-coupled mass spectrometry (LC–MS)
Conditions: 2 µM

| SMILES | Bacterial Biotransformation |
| --- | --- |
| CN/C(=N/CCSCc1nc[nH]c1C)NC#N [CIMETIDINE] | Compound NOT metabolized |
| CC(=O)Nc1ccc(OC(C)=O)cc1 [DIACETAMATE] | Compound metabolized |
| Nc1ccc(/N=N/c2ccccc2)c(N)n1 [PHENAZOPYRIDINE] | Compound metabolized |
| CC(C)NCC(O)COc1ccc(COCCOC(C)C)cc1.CC(C)NCC(O)COc1ccc(COCCOC(C)C)cc1.O=C(O)/C=C/C(=O)O (configuration not stated) [BISOPROLOL FUMARATE] | Compound NOT metabolized |

Assay: The drug is tested on Odoribacter splanchnicus strain: fecal isolate for biotransformation. The drug concentrations were measured before and after a 12-h incubation by liquid-chromatography-coupled mass spectrometry (LC–MS)
Conditions: 2 µM

| SMILES | Bacterial Biotransformation |
| --- | --- |
| CC(=O)Nc1ccc(OC(C)=O)cc1 [DIACETAMATE] | Compound metabolized |
| Nc1ccc(/N=N/c2ccccc2)c(N)n1 [PHENAZOPYRIDINE] | Compound metabolized |
| CC(C)NCC(O)COc1ccc(COCCOC(C)C)cc1.CC(C)NCC(O)COc1ccc(COCCOC(C)C)cc1.O=C(O)/C=C/C(=O)O (configuration not stated) [BISOPROLOL FUMARATE] | Compound NOT metabolized |

Assay: The drug is tested on Clostridium scindens strain: ATCC35704 for biotransformation. The drug concentrations were measured before and after a 12-h incubation by liquid-chromatography-coupled mass spectrometry (LC–MS)
Conditions: 2 µM

| SMILES | Bacterial Biotransformation |
| --- | --- |
| CC(=O)Nc1ccc(OC(C)=O)cc1 [DIACETAMATE] | Compound metabolized |
| Nc1ccc(/N=N/c2ccccc2)c(N)n1 [PHENAZOPYRIDINE] | Compound metabolized |
| CC(C)NCC(O)COc1ccc(COCCOC(C)C)cc1.CC(C)NCC(O)COc1ccc(COCCOC(C)C)cc1.O=C(O)/C=C/C(=O)O (configuration not stated) [BISOPROLOL FUMARATE] | Compound NOT metabolized |

Assay: The drug is tested on Clostridium sporogenes strain: ATCC15579 for biotransformation. The drug concentrations were measured before and after a 12-h incubation by liquid-chromatography-coupled mass spectrometry (LC–MS)
Conditions: 2 µM

| SMILES | Bacterial Biotransformation |
| --- | --- |
| CC(=O)Nc1ccc(OC(C)=O)cc1 [DIACETAMATE] | Compound metabolized |
| Nc1ccc(/N=N/c2ccccc2)c(N)n1 [PHENAZOPYRIDINE] | Compound metabolized |
| CC(C)NCC(O)COc1ccc(COCCOC(C)C)cc1.CC(C)NCC(O)COc1ccc(COCCOC(C)C)cc1.O=C(O)/C=C/C(=O)O (configuration not stated) [BISOPROLOL FUMARATE] | Compound NOT metabolized |

Assay: The drug is tested on Coprococcus comes strain: ATCC27758 for biotransformation. The drug concentrations were measured before and after a 12-h incubation by liquid-chromatography-coupled mass spectrometry (LC–MS)
Format: ADME
Design: dose 2 uM, timepoint 0 vs 12 hours
Conditions: 2 µM

| SMILES | Bacterial Biotransformation |
| --- | --- |
| CN/C(=N/CCSCc1nc[nH]c1C)NC#N [CIMETIDINE] | Compound NOT metabolized |
| CC(=O)Nc1ccc(OC(C)=O)cc1 [DIACETAMATE] | Compound metabolized |
| Nc1ccc(/N=N/c2ccccc2)c(N)n1 [PHENAZOPYRIDINE] | Compound metabolized |
| CC(C)NCC(O)COc1ccc(COCCOC(C)C)cc1.CC(C)NCC(O)COc1ccc(COCCOC(C)C)cc1.O=C(O)/C=C/C(=O)O (configuration not stated) [BISOPROLOL FUMARATE] | Compound NOT metabolized |

Assay: The drug is tested on Eubacterium hallii strain: DSM3353 for biotransformation. The drug concentrations were measured before and after a 12-h incubation by liquid-chromatography-coupled mass spectrometry (LC–MS)
Conditions: anaerobutyricum hallii, 2 µM

| SMILES | Bacterial Biotransformation |
| --- | --- |
| CN/C(=N/CCSCc1nc[nH]c1C)NC#N [CIMETIDINE] | Compound NOT metabolized |
| CC(=O)Nc1ccc(OC(C)=O)cc1 [DIACETAMATE] | Compound metabolized |
| Nc1ccc(/N=N/c2ccccc2)c(N)n1 [PHENAZOPYRIDINE] | Compound metabolized |
| CC(C)NCC(O)COc1ccc(COCCOC(C)C)cc1.CC(C)NCC(O)COc1ccc(COCCOC(C)C)cc1.O=C(O)/C=C/C(=O)O (configuration not stated) [BISOPROLOL FUMARATE] | Compound NOT metabolized |

Assay: The drug is tested on Ruminococcus lactaris strain: ATCC29176 for biotransformation. The drug concentrations were measured before and after a 12-h incubation by liquid-chromatography-coupled mass spectrometry (LC–MS)
Conditions: 2 µM

| SMILES | Bacterial Biotransformation |
| --- | --- |
| CN/C(=N/CCSCc1nc[nH]c1C)NC#N [CIMETIDINE] | Compound NOT metabolized |
| CC(=O)Nc1ccc(OC(C)=O)cc1 [DIACETAMATE] | Compound metabolized |
| Nc1ccc(/N=N/c2ccccc2)c(N)n1 [PHENAZOPYRIDINE] | Compound metabolized |
| CC(C)NCC(O)COc1ccc(COCCOC(C)C)cc1.CC(C)NCC(O)COc1ccc(COCCOC(C)C)cc1.O=C(O)/C=C/C(=O)O (configuration not stated) [BISOPROLOL FUMARATE] | Compound NOT metabolized |

Assay: The drug is tested on Enterobacter cancerogenus strain: ATCC35316 for biotransformation. The drug concentrations were measured before and after a 12-h incubation by liquid-chromatography-coupled mass spectrometry (LC–MS)
Conditions: 2 µM

| SMILES | Bacterial Biotransformation |
| --- | --- |
| CN/C(=N/CCSCc1nc[nH]c1C)NC#N [CIMETIDINE] | Compound NOT metabolized |

Assay: The drug is tested on Providencia rettgeri strain: DSM1131 for biotransformation. The drug concentrations were measured before and after a 12-h incubation by liquid-chromatography-coupled mass spectrometry (LC–MS)
Format: ADME
Design: dose 2 uM, timepoint 0 vs 12 hours
Conditions: 2 µM

| SMILES | Bacterial Biotransformation |
| --- | --- |
| CN/C(=N/CCSCc1nc[nH]c1C)NC#N [CIMETIDINE] | Compound NOT metabolized |
| CC(=O)Nc1ccc(OC(C)=O)cc1 [DIACETAMATE] | Compound metabolized |
| Nc1ccc(/N=N/c2ccccc2)c(N)n1 [PHENAZOPYRIDINE] | Compound NOT metabolized |
| CC(C)NCC(O)COc1ccc(COCCOC(C)C)cc1.CC(C)NCC(O)COc1ccc(COCCOC(C)C)cc1.O=C(O)/C=C/C(=O)O (configuration not stated) [BISOPROLOL FUMARATE] | Compound NOT metabolized |

Conditions: bacteroides fragilis, 12 h, 2 µM
Description: The drug is tested on Bacteroides fragilis strain: 3397 (T10) for biotransformation. The drug concentrations were measured before and after a 12-h incubation by liquid-chromatography-coupled mass spectrometry (LC–MS)

| SMILES | Bacterial Biotransformation |
| --- | --- |
| CN/C(=N/CCSCc1nc[nH]c1C)NC#N [CIMETIDINE] | Compound metabolized |
| CC(=O)Nc1ccc(OC(C)=O)cc1 [DIACETAMATE] | Compound metabolized |
| Nc1ccc(/N=N/c2ccccc2)c(N)n1 [PHENAZOPYRIDINE] | Compound metabolized |
| CC(C)NCC(O)COc1ccc(COCCOC(C)C)cc1.CC(C)NCC(O)COc1ccc(COCCOC(C)C)cc1.O=C(O)/C=C/C(=O)O (configuration not stated) [BISOPROLOL FUMARATE] | Compound NOT metabolized |

Conditions: bacteroides intestinalis, 12 h, 2 µM
Description: The drug is tested on Bacteroides intestinalis strain: DSM17393 for biotransformation. The drug concentrations were measured before and after a 12-h incubation by liquid-chromatography-coupled mass spectrometry (LC–MS)

| SMILES | Bacterial Biotransformation |
| --- | --- |
| CN/C(=N/CCSCc1nc[nH]c1C)NC#N [CIMETIDINE] | Compound NOT metabolized |
| CC(=O)Nc1ccc(OC(C)=O)cc1 [DIACETAMATE] | Compound metabolized |
| Nc1ccc(/N=N/c2ccccc2)c(N)n1 [PHENAZOPYRIDINE] | Compound metabolized |
| CC(C)NCC(O)COc1ccc(COCCOC(C)C)cc1.CC(C)NCC(O)COc1ccc(COCCOC(C)C)cc1.O=C(O)/C=C/C(=O)O (configuration not stated) [BISOPROLOL FUMARATE] | Compound NOT metabolized |

Conditions: bacteroides thetaiotaomicron, 12 h, 2 µM
Description: The drug is tested on Bacteroides thetaiotaomicron strain: 3731 for biotransformation. The drug concentrations were measured before and after a 12-h incubation by liquid-chromatography-coupled mass spectrometry (LC–MS)

| SMILES | Bacterial Biotransformation |
| --- | --- |
| CN/C(=N/CCSCc1nc[nH]c1C)NC#N [CIMETIDINE] | Compound metabolized |
| CC(=O)Nc1ccc(OC(C)=O)cc1 [DIACETAMATE] | Compound metabolized |
| Nc1ccc(/N=N/c2ccccc2)c(N)n1 [PHENAZOPYRIDINE] | Compound metabolized |
| CC(C)NCC(O)COc1ccc(COCCOC(C)C)cc1.CC(C)NCC(O)COc1ccc(COCCOC(C)C)cc1.O=C(O)/C=C/C(=O)O (configuration not stated) [BISOPROLOL FUMARATE] | Compound NOT metabolized |

Conditions: parabacteroides distasonis, 12 h, 2 µM
Description: The drug is tested on Parabacteroides distasonis strain: ATCC8503 for biotransformation. The drug concentrations were measured before and after a 12-h incubation by liquid-chromatography-coupled mass spectrometry (LC–MS)

| SMILES | Bacterial Biotransformation |
| --- | --- |
| CN/C(=N/CCSCc1nc[nH]c1C)NC#N [CIMETIDINE] | Compound NOT metabolized |
| CC(=O)Nc1ccc(OC(C)=O)cc1 [DIACETAMATE] | Compound metabolized |
| Nc1ccc(/N=N/c2ccccc2)c(N)n1 [PHENAZOPYRIDINE] | Compound metabolized |

Conditions: anaerostipes sp., 12 h, 2 µM
Description: The drug is tested on Anaerostipes sp. strain: fecal isolate for biotransformation. The drug concentrations were measured before and after a 12-h incubation by liquid-chromatography-coupled mass spectrometry (LC–MS)

| SMILES | Bacterial Biotransformation |
| --- | --- |
| CN/C(=N/CCSCc1nc[nH]c1C)NC#N [CIMETIDINE] | Compound NOT metabolized |
| CC(=O)Nc1ccc(OC(C)=O)cc1 [DIACETAMATE] | Compound metabolized |
| Nc1ccc(/N=N/c2ccccc2)c(N)n1 [PHENAZOPYRIDINE] | Compound metabolized |
| CC(C)NCC(O)COc1ccc(COCCOC(C)C)cc1.CC(C)NCC(O)COc1ccc(COCCOC(C)C)cc1.O=C(O)/C=C/C(=O)O (configuration not stated) [BISOPROLOL FUMARATE] | Compound NOT metabolized |
